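Growth conditions: 96-well plates. Treatment: test compound, 48 hours, 5 concentrations. Analysis: linear interpolation between bracketing concentrations; unreached endpoints set to highest concentration. TGI marks complete inhibition of growth.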
Tests used:
Experiment in all cases: NCI tumour cell line growth inhibition, 48 h
[1] = tested on: HCC-2998 colon
[2] = tested on: LOX IMVI melanoma
[3] = tested on: M14 melanoma
[4] = tested on: MDA-MB-231 breast
[5] = tested on: NCI-H226 lung
[6] = tested on: NCI-H23 lung
[7] = tested on: SN12C renal
[8] = tested on: T-47D breast
[9] = tested on: UACC-257 melanoma
[10] = tested on: UO-31 renal

Structure (SMILES): CCn1c(O)c(C(=O)NC(C)c2ccc([N+](=O)[O-])cc2)c(=O)n(CC)c1=S (stereo not given)
- TGI [1]: 10.7 µM
- TGI [2]: 10.9 µM
- TGI [3]: 6.04 µM
- TGI [4]: 10.8 µM
- TGI [5]: 11.9 µM
- TGI [6]: 4.63 µM
- TGI [7]: 15 µM
- TGI [8]: 14.2 µM
- TGI [9]: 16.6 µM
- TGI [10]: 5.58 µM

Structure (SMILES): CC(=O)c1cc(S(=O)(=O)c2ccc(O)c(C(C)=O)c2)ccc1O
- TGI [1]: > 100 µM
- TGI [2]: > 100 µM
- TGI [3]: > 100 µM
- TGI [4]: > 100 µM
- TGI [5]: > 100 µM
- TGI [6]: > 100 µM
- TGI [7]: > 100 µM
- TGI [8]: > 100 µM
- TGI [9]: > 100 µM
- TGI [10]: > 100 µM

Structure (SMILES): Cc1sc2nc3n(sc4nc5sc(C)c(C)c5c(=O)n43)c(=O)c2c1C
- TGI [1]: > 100 µM
- TGI [2]: > 100 µM
- TGI [3]: > 100 µM
- TGI [4]: > 100 µM
- TGI [5]: > 100 µM
- TGI [6]: > 100 µM
- TGI [7]: > 100 µM
- TGI [8]: 12 µM
- TGI [9]: > 100 µM
- TGI [10]: > 100 µM

Structure (SMILES): COC(=O)NC(Nc1ccc(C)cc1)(C(F)(F)F)C(F)(F)F
- TGI [1]: > 100 µM
- TGI [2]: > 100 µM
- TGI [3]: > 100 µM
- TGI [4]: > 100 µM
- TGI [5]: > 100 µM
- TGI [6]: > 100 µM
- TGI [7]: > 100 µM
- TGI [8]: > 100 µM
- TGI [9]: > 100 µM
- TGI [10]: > 100 µM

Structure (SMILES): CCCCN(CCCC)C1=Nc2ccccc2-n2c(nnc2C(=O)OCC)C1
- TGI [1]: > 100 µM
- TGI [2]: > 100 µM
- TGI [3]: > 100 µM
- TGI [4]: > 100 µM
- TGI [5]: > 100 µM
- TGI [6]: > 100 µM
- TGI [7]: > 100 µM
- TGI [8]: > 100 µM
- TGI [9]: 90 µM
- TGI [10]: > 100 µM

Structure (SMILES): CN(c1ccc(Cl)cc1)S(=O)(=O)c1ccccc1
- TGI [1]: > 100 µM
- TGI [2]: > 100 µM
- TGI [3]: > 100 µM
- TGI [4]: > 100 µM
- TGI [5]: > 100 µM
- TGI [6]: > 100 µM
- TGI [7]: > 100 µM
- TGI [8]: > 100 µM
- TGI [9]: > 100 µM
- TGI [10]: > 100 µM

Structure (SMILES): O=C1/C(=C/c2cccs2)N=C(c2ccccc2)N1c1nc2ccccc2s1
- TGI [1]: > 100 µM
- TGI [2]: > 100 µM
- TGI [3]: > 100 µM
- TGI [4]: > 100 µM
- TGI [5]: > 100 µM
- TGI [6]: > 100 µM
- TGI [7]: > 100 µM
- TGI [8]: > 100 µM
- TGI [9]: > 100 µM
- TGI [10]: > 100 µM

Structure (SMILES): C=C(C)[C@@H]1CC[C@]2(C(=O)OC3OC(COC4OC(CO)C(OC5OC(C)C(O)C(O)C5O)C(O)C4O)C(O)C(O)C3O)CC[C@]3(C)[C@H](CC[C@@H]4[C@@]5(C)CC[C@H](O)[C@@](C)(CO)[C@@H]5CC[C@]43C)[C@@H]12 (stereo not given in full)
- TGI [1]: > 6.91 µM
- TGI [2]: > 8.27 µM
- TGI [3]: > 10 µM
- TGI [4]: > 9.18 µM
- TGI [5]: > 10 µM
- TGI [6]: > 5.57 µM
- TGI [7]: 9.79 µM
- TGI [8]: > 10 µM
- TGI [9]: > 10 µM
- TGI [10]: > 10 µM

Structure (SMILES): Cc1ccc(C(=O)NN=C(/N=N/c2cccc(C)c2)c2ccc(N(C)C)cc2)cc1
- TGI [1]: > 100 µM
- TGI [2]: > 100 µM
- TGI [3]: > 100 µM
- TGI [4]: > 100 µM
- TGI [5]: > 100 µM
- TGI [6]: > 100 µM
- TGI [7]: > 100 µM
- TGI [8]: > 100 µM
- TGI [9]: > 100 µM
- TGI [10]: > 100 µM

— PubChem BioAssay (NCI)
